Data reported in paper PMC2077808 (2007).

Tests used:
[1] = system: ATP-ASAP (DNA, aptamer, single rA at cleavage site in DNA substrate, flanked by fluorescein-dT and DABCYL-dT) CTTCGGAGGAGAACCATAGTCGGGGGAGAAGATGTGTCCGTGCTATGGTTCGA; test: fluorescence enhancement kinetics, MgZ DNAzyme cleavage sensor; details: 20 mM MgCl2; 50 mM HEPES pH 7.0, 0.001% Tween-20, room temperature; highest tested 1 mM
[2] = system: ADP-ASAP (DNA:RNA, aptamer, RNA aptamer with all-DNA 30-nt antisense element; single rA in DNA substrate flanked by fluorescein-dT and DABCYL-dT) GGAGACGAGGGGTCGAACCGTAGCCCGAAGGTAGGAAGAGTGCCCCGGACAAUCAGACACGGUCUCCACTCTTCCTAGCTATGGTTCGATCAAGA; test: as above; details: 20 mM MgCl2
[3] = system: ADP-ASAP (DNA:RNA, aptamer, RNA aptamer with all-DNA 30-nt antisense element; single rA in DNA substrate flanked by fluorescein-dT and DABCYL-dT) GGAGACGAGGGGTCGAACCGTAGCCCGAAGGTAGGAAGAGTGCCCCGGACAAUCAGACACGGUCUCCACTCTTCCTAGCTATGGTTCGATCAAGA; test: initial rate of fluorescence enhancement, MgZ DNAzyme cleavage sensor; details: 20 mM MgCl2, 50 mM HEPES pH 7.0, 0.001% Tween-20, room temperature, 5 nM ASAP, 1 µM MgZ
[4] = system: ATP-ASAP (DNA, aptamer, single rA at cleavage site in DNA substrate, flanked by fluorescein-dT and DABCYL-dT) CTTCGGAGGAGAACCATAGTCGGGGGAGAAGATGTGTCCGTGCTATGGTTCGA; test: as above; details: 20 mM MgCl2, 50 mM HEPES pH 7.0, 0.001% Tween-20, room temperature, 5 nM ASAP, 50 nM MgZ
[5] = 50 mM HEPES pH 7.0, 0.001% Tween-20, room temperature, highest tested 1 mM

Nc1nc2c(ncn2[C@@H]2O[C@H](COP(=O)(O)OP(=O)(O)OP(=O)(O)O)[C@@H](O)[C@H]2O)c(=O)[nH]1
binding [1]: no

Nc1ncnc2c1ncn2[C@@H]1O[C@H](CO)[C@@H](O)[C@H]1O
binding [2, 5]: no

Nc1ncnc2c1ncn2[C@@H]1O[C@H](COP(=O)(O)O)[C@@H](O)[C@H]1O
binding [2, 5]: no

Nc1ncnc2c1ncn2[C@@H]1O[C@H](COP(=O)(O)OP(=O)(O)O)[C@@H](O)[C@H]1O
apparent K d [3]: 35 ± 3 µM

Nc1ncnc2c1ncn2[C@@H]1O[C@H](COP(=O)(O)OP(=O)(O)OP(=O)(O)O)[C@@H](O)[C@H]1O
binding ([2]; 50 mM HEPES pH 7.0, room temperature, no signal at 200 µM, signal at 300-1000 µM): weak | apparent K d [4]: 456 ± 47 µM
